US20160297768A1, “NOVEL IMIDAZOLE DERIVATIVES AND THERAPEUTIC USE THEREOF” (INDUSTRY-ACA-DEMIC COORPERATION FOUNDATION, YONSEI …, priority 2013, published 2016)

How the values were obtained:
A549 cells = assay: Apoptotic activity by MTT analysis, A549 cells; format: cell-based; settings: 15 μM of the compound, mean±standard deviation; for Apoptosis (%) A549 cells: 12 hours; for cytotoxicity at 15 µM: Homo sapiens, A549, 12 h, read-out: Apoptosis (%) A549 cells
Description: (§1) Lung cancer cells (A549), colorectal cancer cells (HCT116), HeLa cells, liver cancer cells (HepG2), T-cell leukemia cells (Jurkat), myeloid leukemia cells (K562), breast cancer cells (MCF-7 and MDA-MB-231) and myelocytic leukemia cells ([…]) were obtained from the American Type Culture Collection (ATCC), and cultured in 10% fetal bovine serum (FBS), 50 units/mL penicillin and 50 units/mL streptomycin-added RPMI 1640 (Invitrogen). The cells were maintained in a humidified 37° C., 5% CO2 atmosphere. The anticancer activity was detected by MTT analysis. Each type of cancer cells were plated in triplicate in a 96-well microtiter plate, and cultured at 37° C. for 24 hours. The cells were treated with each of the compounds prepared above at 37° C. for 12 hours. After the culturing of the cells, 10 μL of an MTT reagent ((3-[4,5-dimethyl-2-thiazolyl]-2,5-diphenyl-2H-tetrazoliumbromide) was added to each well, and cultured for 3.5 hours. The absorbance of each sample was detected using a UV microplate reader (SpectraMax 340PC 384, Molecular Devices) at 570 nm. The detection results were measured as a mean value. The effect of each compound on apoptosis is shown in Table 1.
(§2) The A549 and HeLa cells were treated with 15 μM of the compound for 12 hours. The apoptosis was detected using MTT (mean±standard deviation).

HeLa cells = assay: Apoptotic activity by MTT analysis, HeLa cells; format: cell-based; settings: 15 μM of the compound, mean±standard deviation; for Apoptosis (%) HeLa cells: 12 hours; for cytotoxicity at 15 µM: Homo sapiens, HeLa, 12 h, read-out: Apoptosis (%) HeLa cells
Description: as §1, §2

Row | SMILES | Apoptosis (%) A549 cells (A549 cells) [%] | Apoptosis (%) HeLa cells (HeLa cells) [%] | cytotoxicity at 15 µM (A549 cells) [%] | cytotoxicity at 15 µM (HeLa cells) [%]
1 | NCCOCCOCCNC(=O)c1ccc(Cn2c(-c3cc(C(F)(F)F)cc(C(F)(F)F)c3)nc(-c3ccc(Cl)cc3)c2-c2ccc(Cl)cc2)cc1 [Example 49, N-(2-(2-(2-aminoethoxy)ethoxy)ethyl)-4-((2-(3,5-bis(trifluoromethyl)phenyl)-4,5-bis(4-chlorophenyl)-1H-imidazole-1-yl)methyl)benzamide] | 0 ± 1.26 | 26 ± 0.38 |  | 
2 | COc1ccc(-c2nc(-c3cccc(C(F)(F)F)c3)n(Cc3ccc(C(=O)NCCOCCOCCN)cc3)c2-c2ccc(OC)cc2F)c(F)c1 [Example 68, N-(2-(2-(2-aminoethoxy)ethoxy)ethyl)-4-((4,5-bis(2-fluoro-4-methoxyphenyl)-2-(3-(trifluoromethyl)phenyl)-1H-imidazole-1-yl)methyl)benzamide] |  |  | 58 ± 1.48 | 89 ± 0.28
3 | COC(=O)c1cc(C(=O)OC)cc(-c2nc(-c3ccc(OC)cc3)c(-c3ccc(OC)cc3)n2Cc2ccc(C(=O)NCCOCCOCCN)cc2)c1 [Example 100, Dimethyl 5-(1-(4-(2-(2-(2-aminoethoxy)ethoxy)ethylcarbamoyl)benzyl)-4,5-bis(4-methoxyphenyl)-1H-imidazole-2-yl)isophthalate] | 31 ± 1.78 | 37 ± 1.54 |  | 
4 | COc1ccc(-c2nc(-c3cc(OC)c(OC)c(OC)c3)n(Cc3ccc(C(=O)NCCOCCOCCN)cc3)c2-c2ccc(OC)cc2)cc1 [Example 102, N-(2-(2-(2-aminoethoxy)ethoxy)ethyl)-4-((4,5-bis(4-methoxyphenyl)-2-(3,4,5-trimethoxyphenyl)-1H-imidazole-1-yl)methyl)benzamide] | 25 ± 1.92 | 29 ± 2.30 |  | 
5 | NCCOCCOCCNC(=O)c1ccc(Cn2c(-c3cc(C(F)(F)F)cc(C(F)(F)F)c3)nc(-c3ccc4c(c3)OCO4)c2-c2ccc3c(c2)OCO3)cc1 [Example 103, N-(2-(2-(2-aminoethoxy)ethoxy)ethyl)-4-((4,5-di(benzo[d][1,3]dioxol-5-yl)-2-(3,5-bis(trifluoromethyl)phenyl)-1H-imidazole-1-yl)methyl)benzamide] |  |  | 0 | 0
6 | NCCOCCOCCNC(=O)c1ccc(Cn2c(-c3cc(C(F)(F)F)cc(C(F)(F)F)c3)nc(-c3ccc4ccccc4c3)c2-c2ccc3ccccc3c2)cc1 [Example 105, N-(2-(2-(2-aminoethoxy)ethoxy)ethyl)-4-((2-(3,5-bis(trifluoromethyl)phenyl)-4,5-di(naphthalene-2-yl)-1H-imidazole-1-yl)methyl)benzamide] |  |  | 39 ± 0.48 | 49 ± 0.41
7 | NCCOCCOCCNC(=O)c1ccc(Cn2c(-c3cc(C(F)(F)F)cc(C(F)(F)F)c3)nc(-c3ccc4ncccc4c3)c2-c2ccc3ncccc3c2)cc1 [Example 106, N-(2-(2-(2-aminoethoxy)ethoxy)ethyl)-4-((2-(3,5-bis(trifluoromethyl)phenyl)-4,5-di(quinoline-6-yl)-1H-imidazole-1-yl)methyl)benzamide] |  |  | 38 ± 1.28 | 42 ± 0.76
8 | COc1ccc(-c2nc(-c3cc(O)cc(O)c3)n(Cc3ccc(C(N)=O)cc3)c2-c2ccc(OC)cc2)cc1 [Example 107, 4-((2-(3,5-dihydroxyphenyl)-4,5-bis(4-methoxyphenyl)-1H-imidazole-1-yl)methyl)benzamide] |  |  | 16 ± 0.3 | 0
9 | COc1ccc(-c2nc(-c3cc(C#N)cc(C#N)c3)n(Cc3ccc(C(N)=O)cc3)c2-c2ccc(OC)cc2)cc1 [Example 108, 4-((2-(3,5-dicyanophenyl)-4,5-bis(4-methoxyphenyl)-1H-imidazole-1-yl)methyl)benzamide] |  |  | 2 ± 0.8 | 12 ± 1.26
10 | COc1ccc(-c2nc(-c3cc(C(F)(F)F)cc(C(F)(F)F)c3)n(Cc3ccc(C(=O)NO)cc3)c2-c2ccc(OC)cc2)cc1 [Example 117, 4-((2-(3,5-bis(trifluoromethyl)phenyl)-4,5-bis(4-methoxyphenyl)-1H-imidazole-1-yl)methyl)-N-hydroxybenzamide] |  |  | 43 ± 0.52 | 40 ± 1.67
11 | COc1ccc(-c2nc(-c3cc(C(F)(F)F)cc(C(F)(F)F)c3)n(Cc3ccc(C(N)=S)cc3)c2-c2ccc(OC)cc2)cc1 [Example 118, 4-((2-(3,5-bis(trifluoromethyl)phenyl)-4,5-bis(4-methoxyphenyl)-1H-imidazole-1-yl)methyl)benzothioamide] |  |  | 50 ± 0.41 | 50 ± 1.66
12 | CNC(=O)c1ccc(Cn2c(-c3cc(C(F)(F)F)cc(C(F)(F)F)c3)nc(-c3ccc(OC)cc3)c2-c2ccc(OC)cc2)cc1 [Example 119, 4-((2-(3,5-bis(trifluoromethyl)phenyl)-4,5-bis(4-methoxyphenyl)-1H-imidazole-1-yl)methyl)-N-methylbenzamide] |  |  | 39 ± 0.76 | 90 ± 1.73
13 | COC(=O)c1ccc(Cn2c(-c3cc(C(F)(F)F)cc(C(F)(F)F)c3)nc(-c3ccc(OC)cc3)c2-c2ccc(OC)cc2)cc1 [Example 120, Methyl4-((2-(3,5-bis(trifluoromethyl)phenyl)-4,5-bis(4-methoxyphenyl)-1H-imidazole-1-yl)methyl)benzoate] |  |  | 40 ± 0.49 | 53 ± 1.84
14 | COCCNC(=O)c1ccc(Cn2c(-c3cc(C(F)(F)F)cc(C(F)(F)F)c3)nc(-c3ccc(OC)cc3)c2-c2ccc(OC)cc2)cc1 [Example 121, 4-((2-(3,5-bis(trifluoromethyl)phenyl)-4,5-bis(4-methoxyphenyl)-1H-imidazole-1-yl)methyl)-N-(2-methoxyethyl)benzamide] |  |  | 13 ± 0.38 | 19 ± 1.06
15 | COCCOC(=O)c1ccc(Cn2c(-c3cc(C(F)(F)F)cc(C(F)(F)F)c3)nc(-c3ccc(OC)cc3)c2-c2ccc(OC)cc2)cc1 [Example 122, 2-methoxyethyl 4-((2-(3,5-bis(trifluoromethyl)phenyl)-4,5-bis(4-methoxyphenyl)-1H-imidazole-1-yl)methyl)benzoate] |  |  | 58 ± 0.28 | 57 ± 0.77
16 | NCCOCCOCCNC(=O)c1ccc(Cn2c(-c3cc(C(F)(F)F)cc(C(F)(F)F)c3)nc(-c3ccccc3Cl)c2-c2ccccc2Cl)cc1 [Example 123, N-(2-(2-(2-aminoethoxy)ethoxy)ethyl)-4-((2-(3,5-bis(trifluoromethyl)phenyl)-4,5-bis(2-chlorophenyl)-1H-imidazole-1-yl)methyl)benzamide] |  |  | 11 ± 0.7 | 8 ± 0.76
17 | NCCOCCOCCNC(=O)c1ccc(Cn2c(-c3ccc(C(F)(F)F)cc3)nc(-c3ccccc3)c2-c2ccccc2)cc1 [Example 128, N-(2-(2-(2-aminoethoxy)ethoxy)ethyl)-4-((4,5-diphenyl-2-(4-(trifluoromethyl)phenyl)-1H-imidazole-1-yl)methyl)benzamide] |  |  | 77 ± 0.76 | 78 ± 1.61
18 | N=C(N)c1ccc(Cn2c(-c3cc(C(F)(F)F)cc(C(F)(F)F)c3)nc(-c3ccc(Br)cc3)c2-c2ccc(Br)cc2)cc1 [Example 181, 4-((2-(3,5-bis(trifluoromethyl)phenyl)-4,5-bis(4-bromophenyl)-1H-imidazole-1-yl)methyl)benzimidamide] |  |  | 93 ± 0.59 | 94 ± 1.26
19 | COc1cccc(-c2nc(-c3cc(C(F)(F)F)cc(C(F)(F)F)c3)n(Cc3ccc(C(=N)N)cc3)c2-c2cccc(OC)c2)c1 [Example 182, 4-((2-(3,5-bis(trifluoromethyl)phenyl)-4,5-bis(3-methoxyphenyl)-1H-imidazole-1-yl)methyl)benzimidamide] |  |  | 49 ± 0.82 | 49 ± 0.48
20 | Cc1ccc(-c2nc(-c3cc(C(F)(F)F)cc(C(F)(F)F)c3)n(Cc3ccc(C(=N)N)cc3)c2-c2ccc(C)cc2)cc1 [Example 183, 4-((2-(3,5-bis(trifluoromethyl)phenyl)-4,5-ditolyl-1H-imidazole-1-yl)methyl)benzimidamide] |  |  | 56 ± 1.07 | 56 ± 0.38
21 | N=C(N)c1ccc(Cn2c(-c3cc(C(F)(F)F)cc(C(F)(F)F)c3)nc(-c3ccccc3)c2-c2ccccc2)cc1 [Example 184, 4-((2-(3,5-bis(trifluoromethyl)phenyl)-4,5-diphenyl-1H-imidazole-1-yl)methyl)benzimidamide] |  |  | 79 ± 0.77 | 79 ± 0.46
22 | COc1ccc(-c2nc(-c3ccc4c(c3)-c3ccccc3C4)n(Cc3ccc(C(=N)N)cc3)c2-c2ccc(OC)cc2)cc1 [Example 185, 4-((2-(9H-fluorene-3-yl)-4,5-bis(4-methoxyphenyl)-1H-imidazole-1-yl)methyl)benzimidamide] |  |  | 42 ± 1.15 | 42 ± 0.38
23 | COc1ccc(-c2nc(-c3cc(C(F)(F)F)cc(C(F)(F)F)c3)n(Cc3ccc(/C(N)=N/O)cc3)c2-c2ccc(OC)cc2)cc1 [Example 186, 4-((2-(3,5-bis(trifluoromethyl)phenyl)-4,5-bis(4-methoxyphenyl)-1H-imidazole-1-yl)methyl)-N′-hydroxybenzimidamide] |  |  | 5 ± 0.38 | 5 ± 0.27
